Experimental data reported in ChEMBL document CHEMBL1144773, “Neolignans, a coumarinolignan, lignan derivatives, and a chromene: anti-inflammatory constituents from Zanthoxylum avicennae” (J Nat Prod, 2008).

Key:
[1] = Antiinflammatory activity in human neutrophils assessed as inhibition of formyl-L-methionyl-L-leucyl-L-phenylalanine/cytochalasin B-induced superoxide anion generation; format: functional, cell-based; settings: Neutrophil
[2] = Antiinflammatory activity in human neutrophils assessed as inhibition of formyl-L-methionyl-L-leucyl-L-phenylalanine/cytochalasin B-induced elastase release; format: functional, cell-based; settings: Neutrophil

SMILES | IC50 [1] [µM] | IC50 [2] [µM]
O=S(=O)(F)Cc1ccccc1 [PHENYLMETHYLSULFONYLFLUORIDE] |  | 204
COc1cc2ccc(=O)oc2cc1O [SCOPOLETIN] | > 50 | > 50
COc1c2c(c3ccc(=O)oc3c1/C=C/C(C)(C)OC)OC(C)(C)C=C2 [AVICENNOL METHYL ETHER] | 48.4 | > 50
c1ccc2c(c1)[I+]c1ccccc1-2 [DIPHENYLENEIODONIUM] | 1.68 | 
COc1cc(=O)n(C)c2ccccc12 | > 50 | > 50
COc1c2c(cc3ccc(=O)oc13)C=CC(C)(C)O2 [LUVANGETIN] | > 50 | > 50
COc1cc2ccc(=O)oc2cc1OC [SCOPARONE] | 42.9 | > 50
COc1cc([C@@H]2Oc3cc(/C=C/C=O)cc(OC)c3O[C@H]2CO)cc(OC)c1O | 48.6 | > 50
COc1cc2ccc(=O)oc2c(OC)c1OC [FRAXIDIN METHYL ETHER] | 49.5 | > 50
Cn1c2ccccc2c(=O)c2ccoc21 [ISODICTAMNINE] | > 50 | > 50
CC1(C)C=Cc2cc(/C=C/C=O)ccc2O1 | > 50 | > 50
COc1c2c(c3ccc(=O)oc3c1/C=C/C(C)(C)O)OC(C)(C)C=C2 [AVICENNOL] | > 50 | 32
COc1cc([C@@H]2Oc3cc(/C=C/C=O)cc(O)c3O[C@H]2CO)cc(OC)c1OC | > 50 | > 50
COc1c2ccccc2nc2occc12 [DICTAMNINE] | > 50 | > 50
COc1cc([C@@H]2Oc3cc(/C=C/C=O)cc(OC)c3O[C@H]2CO)ccc1O | > 50 | > 50

Next, values leading:

IC50 [1] [µM] | IC50 [2] [µM] | SMILES
39.9 | > 50 | COc1cc([C@@H]2OC[C@@H]3[C@H]2CO[C@H]3c2cc(OC)c(O)c(OC)c2)cc(OC)c1O
28 | 28.9 | COc1cc(/C=C\C(=O)OC[C@H]2[C@@H](Cc3cc(OC)c(O)c(OC)c3)CO[C@@H]2c2cc(OC)c(O)c(OC)c2)ccc1O
38 | > 50 | COc1cc(=O)[nH]c2c(OC)cccc12 [EDULITINE]
26.9 | > 50 | COc1cc([C@@H]2Oc3cc(/C=C/C=O)ccc3O[C@H]2CO)cc(OC)c1O
13.1 | > 50 | COc1cc([C@@H]2Oc3c(c(OC)cc4ccc(=O)oc34)O[C@H]2CO)cc(OC)c1O [CLEOMISCOSIN D]
33.6 | > 50 | COc1cc(/C=C/C(=O)OC[C@H]2[C@@H](Cc3cc(OC)c(O)c(OC)c3)CO[C@@H]2c2cc(OC)c(O)c(OC)c2)ccc1O
14.7 | > 50 | COc1cc([C@@H]2Oc3c(c(OC)cc4ccc(=O)oc34)O[C@H]2CO)cc(OC)c1OC
31.3 | > 50 | COc1c2ccoc2nc2c(OC)cccc12 [GAMMA-FAGARINE]
13.2 | 19.2 | COc1ccc2c(OC)c3ccoc3nc2c1OC [SKIMMIANINE]
18.2 | > 50 | COc1c2ccoc2nc2c(O)cccc12 [ROBUSTINE]
